Test system: 233499-124-R-J3-PDC complex spheroid viability
Test: Anticancer human tumor 233499-124-R-J3-PDC patient-derived colon adenocarcinoma cell line growth inhibition [CLK]
Details: for IC50: curve of first compound; for viability, T/C: stronger effect = lower value
From the text: A high-throughput screen of multi-cell type tumor spheroids was designed to identify active combinations of […] and targeted small molecules. Complex spheroids include a stromal component modeled by human endothelial cells (HUVEC) and fibroblasts modeled by human mesenchymal stem cells (MSCs). The concentration ranges selected for each drug and investigational agent were based upon clinically achievable concentrations if the clinical Cmax of the agent was known.
Compounds. The drugs and investigational agents: cirtuvivint (SM08502; NSC835563), CC-671 (NSC850746), vemurafenib (NSC761431), tapotoclax (NSC804041), sotorasib (NSC818433), adagrasib (NSC831453), MRTX-1133 (NSC836407), BAY2416964 (NSC825713), copanlisib (NSC816437), inavolisib (NSC800729), abemaciclib (NSC768073), osimertinib (NSC779217), entinostat (NSC756642), eltanexor (KPT-8602, NSC794443), venetoclax (NSC766270), ceralasertib (NSC777638), bortezomib (NSC756655), olaparib (NSC753686), talazoparib (NSC767125), alisertib (NSC759677), peposertib (NSC802822), gemcitabine (NSC613327), 5-fluorouracil (NSC19893), SN-38 (NSC673596), oxaliplatin (NSC266046), paclitaxel (NSC125973), and doxorubicin (NSC123127), were obtained from the National Cancer Institute (NCI) Developmental Therapeutics Program Chemical Repository. The FDA-approved anticancer drug set is available from the Developmental Therapeutics Program at https://dtp.cancer.gov/organization/dscb/obtaining/available plates.htm. […] The stock solutions were prepared in dimethyl sulfoxide (DMSO, Sigma-Aldrich, St. Louis, MO, cat. D2650), except for the platinum complexes which were prepared in saline (Quality Biological, Gaithersburg, MD, cat. 114-055-101), at 800-fold the tested concentration and stored at -70 degrees C prior to their use. All drugs and investigational agents were tested over a range starting from a high concentration at or near the clinical Cmax and decreasing in half-log increments. If the clinical Cmax for an agent had not been determined, the highest concentration tested was 10 microM.
Cell Culture. All cells were maintained in an incubator at 37 degrees C and 5% CO2 with 95% humidity. The PDC lines were cultured according to standard operating procedures established by the NCI PDMR. Briefly, all PDCs were thawed and cultured in Matrigel-coated flasks prepared with a working solution of 1X Ham's F-12 nutrient mix, without supplementation (Invitrogen, Waltham, MA, cat. 11765054), 100 U/mL penicillin-streptomycin (Invitrogen, cat. 15140122), and 2.5% Matrigel (Corning Inc., Corning, NY, cat. 354248) for the first three passages. The 947758-054-R-J2-PDC line was cultured in 6B/Colon 1A media, which includes advanced DMEM/F-12 (Thermo Fisher Scientific, cat. 12634028), 10 mM HEPES (Thermo Fisher Scientific, cat. 15630080), 1X GlutaMAX supplement (Thermo Fisher Scientific, cat. 35050061), 0.1 mg/mL primocin (InvivoGen, cat. ant-pm-2), 10% defined fetal bovine serum, heat inactivated (HyClone Laboratories Inc., cat. SH30070.03HI), 1.25 mM N-Acetyl-L-cysteine (Sigma-Aldrich, cat. A9165), 10 mM nicotinamide (Sigma-Aldrich, cat. N0636), 1X B-27 supplement (Thermo Fisher Scientific, cat. 17504044), 1X N-2 supplement (Thermo Fisher Scientific, cat. 17502048), and 10 microM Y-27632 dihydrochloride (Tocris Bioscience, cat. 1254). The 876862-298-R-J1-PDC was cultured in 6E media, which includes all 6B/Colon 1A media components plus 50% L-WRN conditioned media (ATCC, cat. CRL-3276), 50 ng/mL recombinant human EGF recombinant protein (hEGF; Thermo Fisher Scientific, cat. PHG0311), 10 ng/mL recombinant human fibroblast growth factor 10 (hGFG-10; PeproTech, cat. 100-26), 1 ng/mL recombinant human fibroblast growth factor 2 (hFGF-2; PeproTech, cat. 100-18B), and 1 µM prostaglandin E2 (PGE2; Tocris, cat. 2296). The 227483-062-R1-J1-PDC line was cultured in Panc media, containing all 6E components except hFGF-2, with the addition of 500 nM SB-431542 (Selleckchem, cat. S1067) and 10 nM gastrin (Tocris, cat. 3006). […]
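Further: spheroids exposed to the drug combinations for seven days.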
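Wherever viability, T/C is given: percent viability relative to DMSO vehicle control wells taken as 100%.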

For `CCN1CCN(Cc2ccc(Nc3ncc(F)c(-c4cc(F)c5nc(C)n(C(C)C)c5c4)n3)nc2)CC1` + CN1CCN(c2cc(C(=O)Nc3cc4cc(-c5cnn(C)c5)ccc4cn3)ccn2)CC1, the IC50 (second compound 0.0316 µM) was > 1000 nM, the IC50 (second compound 0.1 µM) was > 1000 nM and the IC50 (second compound 0.316 µM) was > 1000 nM. For the same compound, the IC50 (second compound 1 µM) was < 3.16 nM, the IC50 (second compound 3.16 µM) was < 3.16 nM and the IC50 (second compound 10 µM) was < 3.16 nM. It also gave a viability, T/C (second compound 0.0316 µM, first compound 0.00316 µM) of 96.4%, a viability, T/C (second compound 0.0316 µM, first compound 0.01 µM) of 87.2% and a viability, T/C (second compound 0.0316 µM, first compound 0.0316 µM) of 81.5%. The viability, T/C (second compound 0.0316 µM, first compound 0.1 µM) was 107%, the viability, T/C (second compound 0.0316 µM, first compound 0.316 µM) was 97.9% and the viability, T/C (second compound 0.0316 µM, first compound 1 µM) was 97.4%. For the same compound, the viability, T/C (second compound 0.1 µM, first compound 0.00316 µM) was 91.5%, the viability, T/C (second compound 0.1 µM, first compound 0.01 µM) was 114% and the viability, T/C (second compound 0.1 µM, first compound 0.0316 µM) was 83.1%. For the same compound, the viability, T/C (second compound 0.1 µM, first compound 0.1 µM) was 90.5%, the viability, T/C (second compound 0.1 µM, first compound 0.316 µM) was 93.1% and the viability, T/C (second compound 0.1 µM, first compound 1 µM) was 93.1%. It also gave a viability, T/C (second compound 0.316 µM, first compound 0.00316 µM) of 92.7%, a viability, T/C (second compound 0.316 µM, first compound 0.01 µM) of 91.6% and a viability, T/C (second compound 0.316 µM, first compound 0.0316 µM) of 96.2%. For the same compound, the viability, T/C (second compound 0.316 µM, first compound 0.1 µM) was 87.5%, the viability, T/C (second compound 0.316 µM, first compound 0.316 µM) was 86.9% and the viability, T/C (second compound 0.316 µM, first compound 1 µM) was 77.9%. It also gave a viability, T/C (second compound 1 µM, first compound 0.00316 µM) of 6.1%, a viability, T/C (second compound 1 µM, first compound 0.01 µM) of 0.82% and a viability, T/C (second compound 1 µM, first compound 0.0316 µM) of 1.32%. For the same compound, the viability, T/C (second compound 1 µM, first compound 0.1 µM) was 4.68%, the viability, T/C (second compound 1 µM, first compound 0.316 µM) was 6.35% and the viability, T/C (second compound 1 µM, first compound 1 µM) was 2.16%. For the same compound, the viability, T/C (second compound 3.16 µM, first compound 0.00316 µM) was 0.75%, the viability, T/C (second compound 3.16 µM, first compound 0.01 µM) was 0.56% and the viability, T/C (second compound 3.16 µM, first compound 0.0316 µM) was 0.71%. It also gave a viability, T/C (second compound 3.16 µM, first compound 0.1 µM) of 0.69%, a viability, T/C (second compound 3.16 µM, first compound 0.316 µM) of 1.11% and a viability, T/C (second compound 3.16 µM, first compound 1 µM) of 1.38%. For the same compound, the viability, T/C (second compound 10 µM, first compound 0.00316 µM) was 0.5%, the viability, T/C (second compound 10 µM, first compound 0.01 µM) was 0.56% and the viability, T/C (second compound 10 µM, first compound 0.0316 µM) was 1.04%. It also gave a viability, T/C (second compound 10 µM, first compound 0.1 µM) of 0.52%, a viability, T/C (second compound 10 µM, first compound 0.316 µM) of 0.59% and a viability, T/C (second compound 10 µM, first compound 1 µM) of 0.61%.

From PubChem BioAssay AID2060613 (Molecular Pharmacology Branch, DTP, NCI, 2025)
